Results: PubChem BioAssay AID1963840 (Molecular Pharmacology Branch, DTP, NCI, 2024)

Tested on: 695427-040-R-J1-PDC complex spheroid viability
Assay: Anticancer human tumor 695427-040-R-J1-PDC patient-derived colon adenocarcinoma cell line growth inhibition [POLQ]
Conditions: for IC50: curve of first compound; for viability, T/C: stronger effect = lower value
In short: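 Three-cell-type spheroids modelling solid tumor plus stroma served as the readout system; POL inhibitors were tested individually and in combination, concentration ranges set by clinical Cmax where known.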

[1] = second compound 0.0316 µM, first compound 0.00316 µM
[2] = second compound 0.0316 µM, first compound 0.01 µM
[3] = second compound 0.0316 µM, first compound 0.0316 µM
[4] = second compound 0.0316 µM, first compound 0.1 µM
[5] = second compound 0.0316 µM, first compound 0.316 µM
[6] = second compound 0.0316 µM, first compound 1 µM
[7] = second compound 0.1 µM, first compound 0.00316 µM
[8] = second compound 0.1 µM, first compound 0.01 µM
[9] = second compound 0.1 µM, first compound 0.0316 µM
[10] = second compound 0.1 µM, first compound 0.1 µM
[11] = second compound 0.1 µM, first compound 0.316 µM
[12] = second compound 0.1 µM, first compound 1 µM
[13] = second compound 0.316 µM, first compound 0.00316 µM
[14] = second compound 0.316 µM, first compound 0.01 µM
[15] = second compound 0.316 µM, first compound 0.0316 µM
[16] = second compound 0.316 µM, first compound 0.1 µM
[17] = second compound 0.316 µM, first compound 0.316 µM
[18] = second compound 0.316 µM, first compound 1 µM
[19] = second compound 1 µM, first compound 0.00316 µM
[20] = second compound 1 µM, first compound 0.01 µM
[21] = second compound 1 µM, first compound 0.0316 µM
[22] = second compound 1 µM, first compound 0.1 µM
[23] = second compound 1 µM, first compound 0.316 µM
[24] = second compound 1 µM, first compound 1 µM
[25] = second compound 3.16 µM, first compound 0.00316 µM
[26] = second compound 3.16 µM, first compound 0.01 µM
[27] = second compound 3.16 µM, first compound 0.0316 µM
[28] = second compound 3.16 µM, first compound 0.1 µM
[29] = second compound 3.16 µM, first compound 0.316 µM
[30] = second compound 3.16 µM, first compound 1 µM
[31] = second compound 10 µM, first compound 0.00316 µM
[32] = second compound 10 µM, first compound 0.01 µM
[33] = second compound 10 µM, first compound 0.0316 µM
[34] = second compound 10 µM, first compound 0.1 µM
[35] = second compound 10 µM, first compound 0.316 µM
[36] = second compound 10 µM, first compound 1 µM
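Further: spheroids exposed to compounds for seven days.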
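Wherever viability, T/C is given: 100% = DMSO vehicle control viability.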

C=CCn1c(=O)c2cnc(Nc3ccc(N4CCN(C)CC4)cc3)nc2n1-c1cccc(C(C)(C)O)n1 + Nc1ccc(C#CCN(C(=O)Cc2ncc(C(F)(F)F)cc2C(F)(F)F)c2ccc(F)cc2)nn1
IC50 (second compound 0.0316 µM): > 1000 nM
IC50 (second compound 0.1 µM): > 1000 nM
IC50 (second compound 0.316 µM): > 1000 nM
IC50 (second compound 1 µM): > 1000 nM
IC50 (second compound 3.16 µM): > 1000 nM
IC50 (second compound 10 µM): > 1000 nM
viability, T/C [1]: 101%
viability, T/C [2]: 99.5%
viability, T/C [3]: 112%
viability, T/C [4]: 101%
viability, T/C [5]: 96.7%
viability, T/C [6]: 74.6%
viability, T/C [7]: 106%
viability, T/C [8]: 101%
viability, T/C [9]: 94.8%
viability, T/C [10]: 96.9%
viability, T/C [11]: 99.9%
viability, T/C [12]: 78%
viability, T/C [13]: 113%
viability, T/C [14]: 107%
viability, T/C [15]: 101%
viability, T/C [16]: 97.7%
viability, T/C [17]: 91.4%
viability, T/C [18]: 81%
viability, T/C [19]: 104%
viability, T/C [20]: 96%
viability, T/C [21]: 96.4%
viability, T/C [22]: 94.2%
viability, T/C [23]: 93.8%
viability, T/C [24]: 71.7%
viability, T/C [25]: 98.6%
viability, T/C [26]: 101%
viability, T/C [27]: 107%
viability, T/C [28]: 98.7%
viability, T/C [29]: 85.8%
viability, T/C [30]: 74.2%
viability, T/C [31]: 91.8%
viability, T/C [32]: 93.7%
viability, T/C [33]: 85.8%
viability, T/C [34]: 99.4%
viability, T/C [35]: 81.8%
viability, T/C [36]: 65.3%

COc1cccc(OCCCN)c1-c1cc(Nc2cnc(C#N)cn2)n[nH]1 + Nc1ccc(C#CCN(C(=O)Cc2ncc(C(F)(F)F)cc2C(F)(F)F)c2ccc(F)cc2)nn1
IC50 (second compound 0.0316 µM): > 1000 nM
IC50 (second compound 0.1 µM): > 1000 nM
IC50 (second compound 0.316 µM): > 1000 nM
IC50 (second compound 1 µM): > 1000 nM
IC50 (second compound 3.16 µM): > 1000 nM
IC50 (second compound 10 µM): 252 nM
viability, T/C [1]: 106%
viability, T/C [2]: 99.7%
viability, T/C [3]: 94.4%
viability, T/C [4]: 82.8%
viability, T/C [5]: 68.8%
viability, T/C [6]: 53.5%
viability, T/C [7]: 115%
viability, T/C [8]: 94.1%
viability, T/C [9]: 88.7%
viability, T/C [10]: 85.7%
viability, T/C [11]: 66.3%
viability, T/C [12]: 51.9%
viability, T/C [13]: 104%
viability, T/C [14]: 101%
viability, T/C [15]: 80.9%
viability, T/C [16]: 82.1%
viability, T/C [17]: 73.6%
viability, T/C [18]: 49.7%
viability, T/C [19]: 105%
viability, T/C [20]: 94.2%
viability, T/C [21]: 91.6%
viability, T/C [22]: 85.4%
viability, T/C [23]: 70.3%
viability, T/C [24]: 50.7%
viability, T/C [25]: 95.3%
viability, T/C [26]: 90.1%
viability, T/C [27]: 80%
viability, T/C [28]: 69%
viability, T/C [29]: 59.4%
viability, T/C [30]: 50.2%
viability, T/C [31]: 95.8%
viability, T/C [32]: 86.2%
viability, T/C [33]: 69.7%
viability, T/C [34]: 59%
viability, T/C [35]: 46.6%
viability, T/C [36]: 44.3%
